# Laboratory results published in patent US20060241066A1, “Decoy composition for treating and preventing inflammatory disease” (priority 2002, published 2006).
# Entries after “also recorded” stand apart in the source; their conditions may differ.
# What was measured:
# [1] = tested on: type II collagen arthritis model in apes; assay: Type II collagen arthritis model in apes, intraarticular administration; type: in vivo, apes (macaque); conditions: for effective ratio: NF-κB decoy 10 mg/joint at two-week intervals, type II collagen articulitis model in apes; for change of the joints on X-ray photographs (synovial inflammation, joint swelling, joint cartilage, osteoclasis), FIG. 1: simian collagen arthritis model, radiograph
# [2] = tested on: osteoarthritis rat model; assay: Osteoarthritis model using rats, intraarticular administration, joint section slides (FIG. 2); conditions: listed as NF-κB decoys
Substance,effective ratio [1],"change of the joints on X-ray photographs (synovial inflammation, joint swelling, joint cartilage, osteoclasis), FIG. 1 [1]","change of the joints on X-ray photographs (synovial inflammation, joint swelling, joint cartilage, osteoclasis), FIG. 1 ([1]; listed as scrambled decoys)","effect on joint (section slide photographs), FIG. 2 ([2]; administration of 10 mg of decoy)","effect on joint (section slide photographs), FIG. 2 ([2]; administration of 30 mg of decoy)","effect compared with that of steroid, FIG. 2 ([2]; decoy 10 mg and 30 mg versus steroid)","change of the joints on X-ray photographs (synovial inflammation, joint swelling, joint cartilage, osteoclasis), FIG. 1 ([1]; listed as decoy of the present invention)","change of the joints on X-ray photographs (synovial inflammation, joint swelling, joint cartilage, osteoclasis), FIG. 1 ([1]; listed as decoys of the present invention)"
"5′-CATGTCGTCACTGCGCTCAT-3′ (SEQ ID NO: 7); and 5′-ATGAGCGCAGTGACGACATG-3′ (SEQ ID NO: 8) (listed as DNA, chemistry not given here) [scrambled decoy, reference compound]",1/4,no effects,No effects,–,–,–,–,–
"5′-CCTTGAAGGGATTTCCCTCC-3′ (SEQ ID NO: 1) (chemistry not given here) [NF-κB decoy, NF-κB decoy oligonucleotide (AnGes MG)]",3/4,–,–,significant improvement; also recorded: significant effects,eliminated the joint inflammation; also recorded: destroyed the articulitis,exceeded that of steroids; also recorded: beyond those attained by the steroid,significant improvements,significant improvement
